Blank lines part the entries; values can stand above or below the molecule they belong to. Ends that are not written are not given here. Hoechst 33258 analog = not defined here
Key:
[1] = biological target: TGGTCA matched site on 250-bp EcoRI/PvuII restriction fragment from plasmid pDEH9; test: Quantitative DNase I footprint titration, matched site; assay type: binding; conditions: 12 h at 22° C., TKMC buffer pH 7.0, read-out: Equilibrium Dissociation Constants Kd, TGGTCA
Procedure: (§1) Quantitative DNaseI footprinting can be used to determine the equilibrium association constants for binding to match and mismatch sites. Footprinting experiments are generally performed on 3′- and/or 5′-^32P end restriction fragments derived from plasmids. 3′-shifted cleavage patterns are consistent with location of the polyamide in the minor groove. Typical reaction conditions are: 10 mM Tris-HCl, 10 mM KCl, 10 mM MgCl2, 5 mM CaCl2, pH 7.0, and 22° C. See Brenowitz et al. (1986). Methods Enzymol. 130:132-181; Fox & Waring (1984) Nucleic Acids Res. 12:9271-9285; and Brenowitz et al. (1986) Proc. Natl. Acad. Sci. U.S.A. 83: 8462-8466.
DNase I Footprinting: Dissociation constants for the DNA binding of compounds 1, 2 and 3 were obtained following published protocols. All reactions were carried out in 400 μL total volume employing 20 kcpm of a 3′-radiolabelled 250-bp restriction fragment from the plasmid pDEH9 (FIG. 1a) (SEQ. ID. NO: 4). […]
FIGS. 1b, 1c, and 1d are quantitative DNAse I footprint titration experiments for compounds 1, 2 and 3 on the 3′^−32 P-labeled 250-bp EcoRI/PvuII restriction fragment from the plasmid pDEH9. […]
The DNA-binding properties of the compounds 1-3 were investigated by quantitative DNase 1 footprinting assays. […]

[2] = tested on: TGGCCA mismatch site on 250-bp EcoRI/PvuII restriction fragment from plasmid pDEH9; test: Quantitative DNase I footprint titration, mismatch site TGGCCA; assay type: binding
Procedure: as §1
(§2) DNase I Footprinting: Dissociation constants for the DNA binding of compounds 1, 2 and 3 were obtained following published protocols. All reactions were carried out in 400 μL total volume employing 20 kcpm of a 3′-radiolabelled 250-bp restriction fragment from the plasmid pDEH9 (FIG. 1a) (SEQ. ID. NO: 4). No carrier DNA was used in the equilibration, and the solutions were allowed to equilibrate for 12 h at 22° C. in TKMC buffer (10 mM TRIS, 10 mM KCl, […], 5 mM CaCl2 pH 7.0) prior to the DNase I digestion. Reaction products (8 kcpm) were resolved on denaturing 8% polyacrylamide sequencing gels run at 55 W.
(§3) FIGS. 1b, 1c, and 1d are quantitative DNAse I footprint titration experiments for compounds 1, 2 and 3 on the 3′^−32 P-labeled 250-bp EcoRI/PvuII restriction fragment from the plasmid pDEH9. Lane 1: Intact DNA. Lane 2: A-reaction. Lane 3: G-reaction. Lane 4: DNAse 1 standard.
(§4) The DNA-binding properties of the compounds 1-3 were investigated by quantitative DNase 1 footprinting assays. The equilibrium binding constants of each of the compounds for a matched versus three single base pair mismatch sites is compiled in Table 1. The lower strand sequence is shown in the header. Mismatched base pairs are underlined. The residue under the YPWM peptide is in bold. Relative specificities are given in square brackets.

[3] = tested on: TGGGCA mismatch site on 250-bp EcoRI/PvuII restriction fragment from plasmid pDEH9; test: Quantitative DNase I footprint titration, mismatch site TGGGCA; assay type: binding
Procedure: as §1, §2, §3, §4

[4] = tested on: AGCTCA mismatch site on 250-bp EcoRI/PvuII restriction fragment from plasmid pDEH9; test: Quantitative DNase I footprint titration, mismatch site AGCTCA; assay type: binding
Procedure: as §1, §2, §3, §4

[5] = biological target: T1, extradenticle (Exd) protein (residues 238-324) (Drosophila melanogaster, UniProt P40427); test: EMSA: recruitment of Exd to its cognate DNA site by polyamides 1-3; assay type: binding; conditions: saturating 50 nM compound, Exd 0-100 nM
T1 construct: comprising the homeodomain and the extended fourth helix (residues 238-324); made in house
T1 sequence (P40427 238-324): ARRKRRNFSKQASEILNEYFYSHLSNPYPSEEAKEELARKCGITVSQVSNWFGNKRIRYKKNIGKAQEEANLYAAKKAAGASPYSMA
Excerpt: (§5) Protein expression: Drosophila extradenticle (Exd) protein comprising the homeodomain and the extended fourth helix (residues 238-324), as well as ultrabithorax (Ubx) protein homeodomain (residues 233-313 of the Ubx isoform IVa) were expressed and purified after Passner & Aggarwal. The purified proteins Exd and Ubx were used for EMSA studies as described below.
(§6) For the templates, the DNA oligonucleotides depicted in FIGS. 2a, 2b, 2c, and 2d were used, SEQ. ID NOS: 5, 6, 7, and 8, respectively. The DNA upper strand was annealed with the respective matching lower strand and both strands were 5′-labeled with γ-^32P-ATP and polynucleotide kinase, using standard procedures.
Gel-shift experiments: The master mix contained 50% BSA/50% glycerol, reaction buffer (150 mM potassium glutamate, 50 mM HEPES pH 7.0, 1 mM DTT, and 5′-end labeled DNA (^32P) The final concentrations in the samples were 100 ng/μL BSA and 10% glycerol. Polyamides were kept in subdued lighting whenever possible. Upon addition of the polyamide to 1 pM DNA, the samples were incubated at 25 °C. for 30 minutes in a 20 μL reaction. Next, Exd was added to the samples and incubated for 1 hour at 4° C. A 9% acrylamide/3% glycerol gel was pre-run for 15 min prior to loading. In each lane 15 μL of a 20 μL reaction were loaded while the gel was running to prevent the samples from being diluted. The gels were run at 4° C./185 V. Gels were dried, exposed to a phosphorimager screen, and visualized using a Molecular Dynamics phosphorimager.
FIGS. 3a and 3b: EMSA studies with polyamides 1-3, Exd and Ubx. In FIG. 3a, each polyamide binds and decreases the mobility of free DNA (lanes 2-18). […] In lanes 2-6,8-12, 14-18, Exd was added in following concentrations: 0, 3, 10, 30, 100 nM. Lanes 19 and 20 contained DNA bearing the Exd-Ubx binding site that was used in X-ray crystal structure determination (see methods above for sequence). In the reaction shown in lane 20, 275 nM Ubx and 30 nM Exd were incubated with DNA. […]

[6] = tested on: DNA duplex templates (FIG. 2a optimal; FIG. 2c mismatch in PA binding site); test: EMSA: binding of polyamides to the DNA duplex templates; conditions: even at 100 nM concentrations
Excerpt: as §6
FIGS. 2a, 2b, 2c and 2d show depict the DNA duplexes used for the EMSA studies. The binding site for the Exd protein is marked by a box, the polyamide or Hox protein binding site is shown in boldface, FIG. 2a depicts the optimal template. FIG. 2b depicts a 2-bp mismatch in the Exd site. FIG. 2c depicts a 2-hp mismatch in the PA binding site. FIG. 2d depicts a composite Ubx-Exd binding site (see Passner et al. (1999) Nature, 397:714-719). […]

[7] = biological target: T2, Exd (Drosophila melanogaster, UniProt P40427); test: Example 7 EMSA: recruitment of Exd by linker compounds; assay type: binding
T2 construct: comprising the homeodomain and the extended fourth helix (residues 238-324); made in house
T2 sequence (P40427 238-324): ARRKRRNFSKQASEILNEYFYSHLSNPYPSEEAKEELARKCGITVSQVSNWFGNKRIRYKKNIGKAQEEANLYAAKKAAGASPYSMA
Procedure: The assays were performed with 50 nM of the conjugate pre-incubated with target DNA (thus to bind the anchor moiety to the target nucleic acid) followed by the addition and incubation with Exd.
To determine the effects of longer linker on binding, the ability of compounds using linkers 1, 2 and 4 to recruit Exd at three different temperatures was investigated.

[8] = tested on: double-stranded DNA; conditions: Behrens et al. (2001); cited from earlier work
[9] = tested on: duplex DNA with composite Ubx-Exd binding site (FIG. 2d); test: EMSA: Ubx binding to its cognate DNA
Procedure: (§7) Gel-shift studies with the Ubx protein were performed under identical buffer conditions using the duplex oligonucleotide listed in FIG. 2d. Ubx was added to the reaction mixture containing ^32P-endlabeled duplex DNA and incubated at 4° C. for 30 min. Subsequently Exd was added and the reaction was further incubated for 60 min at 4° C. The complexes were resolved under similar gel conditions as those described for DNA-polyamide-Exd complexes above. […] Under saturating concentrations of Ubx (325 nM) the Kd of Exd for the binary [Ubx-DNA] complex was 2-3 fold larger than the affinity of Exd for the polyamide-DNA binary complex.

[10] = biological target: T3, extradenticle (Exd) protein (Drosophila melanogaster, UniProt P40427); test: EMSA: Exd binding to the binary Ubx-DNA complex; conditions: saturating concentrations of Ubx (325 nM)
T3 construct: comprising the homeodomain and the extended fourth helix (residues 238-324); made in house
T3 sequence (P40427 238-324): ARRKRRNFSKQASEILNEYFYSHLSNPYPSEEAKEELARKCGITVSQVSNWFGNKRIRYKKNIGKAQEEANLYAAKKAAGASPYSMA
Procedure: as §5, §7

[11] = biological target: Ultrabithorax (Ubx) homeodomain, isoform IVa (Drosophila, UniProt P83949-5 P83949-5:233-313); test: EMSA; Ubx alone; 150 mM K glutamate, 50 mM HEPES pH 7.0, 4 C; conditions: label: 5'-32P both strands
Procedure: Gel-shift studies with the Ubx protein were performed under identical buffer conditions using the duplex oligonucleotide listed in FIG. 2d. Ubx was added to the reaction mixture containing ³²P-endlabeled duplex DNA and incubated at 4° C. for 30 min. […] The complexes were resolved under similar gel conditions as those described for DNA-polyamide-Exd complexes above.

[12] = relative to matched site TGGTCA

Sequence of Ultrabithorax (Ubx) homeodomain, isoform IVa (P83949 other isoform, or with tags, fused parts or gaps): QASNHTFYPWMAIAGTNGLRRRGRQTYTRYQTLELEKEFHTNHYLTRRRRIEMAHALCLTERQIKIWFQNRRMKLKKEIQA

Kd [1]: 5.8 ± 0.8 nM
Relative specificity (square brackets), TGGCCA [2, 12]: 1.4
Kd ([2]; single base pair mismatch site, 22° C., TKMC buffer, read-out: Equilibrium Dissociation Constants Kd, TGGCCA): 7.9 ± 1.6 nM
Relative specificity (square brackets), TGGGCA [3, 12]: 17
Kd ([3]; single base pair mismatch site, 22° C., TKMC buffer, read-out: Equilibrium Dissociation Constants Kd, TGGGCA): ≥ 0.1 nM
Relative specificity (square brackets), AGCTCA [4, 12]: 1.1
Kd ([4]; single base pair mismatch site, 22° C., TKMC buffer, read-out: Equilibrium Dissociation Constants Kd, AGCTCA): 6.4 ± 1.1 nM
ability to recruit Exd to its cognate DNA site (Exd binding) ([5]; listed as Compound 2): capable of recruiting Exd to DNA
ability to recruit Exd to its cognate DNA site (Exd binding) ([5]; listed as compound 2): binds DNA with very high affinity
binding to mutated template (polyamide-binding site eliminated) [6]: did not bind
ability to recruit Exd ([7]; physiological temperatures (37° C.)): fails to do so effectively
ability to recruit Exd ([7]; room temperature (23° C.)): capable of recruiting Exd
Molecule: Cmpd 2 (FYPWMKG)

affinity of Ubx for its DNA site lower than that of compound 2 for its respective site [9]: ≥ 40 fold
Kd ([9]; 4° C.): 200 ± 25 nM
Kd of Exd for the binary [Ubx-DNA] complex, larger than for the polyamide-DNA binary complex [10]: 2-3 fold
B1: Ubx: Drosophila ultrabithorax (Ubx) protein homeodomain (residues 233-313 of the Ubx isoform IVa) (protein, UniProt P83949 233-313, looked up, fragment)
chain: QASNHTFYPWMAIAGECPEDPTKSKIRSDLTQYGGISTDMGKRYSESLAGSLLPDWLGTNGLRRRGRQTYTRYQTLELEKE
modifications: isoform IVa

The next lines start with the molecule.

Molecule: Hoechst 33258 analog-KSPKKAKK polypeptide: Hoechst 33258 analog bonded to the N-terminus of the cationic polypeptide KSPKKAKK (Behrens et al.) ({Hoechst 33258 analog}-KSPKKAKK; reading uncertain)
higher affinity for double-stranded DNA than the Hoechst analog itself [8]: approximately 10 fold

B2: Composite Ubx-Exd EMSA duplex (FIG. 2d) (dsDNA)
DNA 1: GATCTCCCGGCGAATGATTTATGGTATCGGCGCCACTGTCACCCGGA
DNA 2: TCCGGGTGACAGTGGCGCCGATACCATAAATCATTCGCCGGGAGATC
Kd [11]: 200 nM

Reference: patent publication US20050123936A1, “Method, composition, and kit to design, evaluate, and/or test compounds that modulate regulatory factor binding to nucleic acids” (priority 2003, published 2005)
